Source: ChEMBL document CHEMBL5365457, “Selective HDAC3 Inhibitors with Potent In Vivo Antitumor Efficacy against Triple-Negative Breast Cancer” (J Med Chem, 2023)
Activity calls are given as the source filed them. No cut-off for these calls is given here.

Experiments:
Histone deacetylase 1 = Histone deacetylase 1 (Homo sapiens, UniProt Q13547); test: Inhibition of full length N-terminal human recombinant HDAC1 at 1 uM incubated for 30 mins by fluorescence based microplate assay relative to control
Histone deacetylase 1, sequence (Q13547 whole entry): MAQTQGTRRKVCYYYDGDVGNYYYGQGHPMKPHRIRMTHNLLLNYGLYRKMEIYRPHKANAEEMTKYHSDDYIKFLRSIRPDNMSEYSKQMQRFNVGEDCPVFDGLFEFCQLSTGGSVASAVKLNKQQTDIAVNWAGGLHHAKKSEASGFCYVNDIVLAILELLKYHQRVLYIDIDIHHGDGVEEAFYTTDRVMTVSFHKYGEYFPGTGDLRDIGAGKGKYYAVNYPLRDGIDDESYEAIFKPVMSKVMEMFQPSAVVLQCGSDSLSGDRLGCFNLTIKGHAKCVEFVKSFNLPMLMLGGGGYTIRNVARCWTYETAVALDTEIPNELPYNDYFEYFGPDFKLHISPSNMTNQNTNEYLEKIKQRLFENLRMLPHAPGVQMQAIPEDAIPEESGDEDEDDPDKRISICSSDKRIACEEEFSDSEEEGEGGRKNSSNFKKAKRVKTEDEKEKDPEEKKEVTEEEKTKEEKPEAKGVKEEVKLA

MDA-MB-231 [1] = test: Cytotoxicity against human MDA-MB-231 cells assessed as inhibition of cell growth incubated for 72 hrs by MTT assay; format: functional, cell-based; details: MDA-MB-231, 72 h
MDA-MB-453 = test: Cytotoxicity against human MDA-MB-453 cells assessed as inhibition of cell growth incubated for 72 hrs by MTT assay; format: functional, cell-based; details: MDA-MB-453, 72 h
[2] = Cytotoxicity against human HEK293 cells assessed as inhibition of cell growth incubated for 72 hrs by MTT assay; format: toxicity, cell-based
[3] = Tmax in Wistar rat at 15 mg/kg, ip measured upto 24 hrs by HPLC analysis; format: ADME, organism-based; details: in vivo
[4] = Cmax in Wistar rat at 15 mg/kg, ip measured upto 24 hrs by HPLC analysis; format: ADME, organism-based; parameters: dose 15 mg/kg, time < 24 hrs, route ip; details: in vivo
[5] = MRT (0 to infinity) in Wistar rat at 5 mg/kg, ip measured upto 24 hrs by HPLC analysis; format: ADME, organism-based; details: in vivo
[6] = AUMC (0 to infinity) in Wistar rat at 15 mg/kg, ip measured upto 24 hrs by HPLC analysis; format: ADME, organism-based; details: in vivo
Histone deacetylase 3 = Histone deacetylase 3 (Homo sapiens, UniProt O15379); test: Inhibition of human recombinant HDAC3 incubated for 15 mins by fluorescence based microplate analysis
Histone deacetylase 3, sequence (O15379 whole entry): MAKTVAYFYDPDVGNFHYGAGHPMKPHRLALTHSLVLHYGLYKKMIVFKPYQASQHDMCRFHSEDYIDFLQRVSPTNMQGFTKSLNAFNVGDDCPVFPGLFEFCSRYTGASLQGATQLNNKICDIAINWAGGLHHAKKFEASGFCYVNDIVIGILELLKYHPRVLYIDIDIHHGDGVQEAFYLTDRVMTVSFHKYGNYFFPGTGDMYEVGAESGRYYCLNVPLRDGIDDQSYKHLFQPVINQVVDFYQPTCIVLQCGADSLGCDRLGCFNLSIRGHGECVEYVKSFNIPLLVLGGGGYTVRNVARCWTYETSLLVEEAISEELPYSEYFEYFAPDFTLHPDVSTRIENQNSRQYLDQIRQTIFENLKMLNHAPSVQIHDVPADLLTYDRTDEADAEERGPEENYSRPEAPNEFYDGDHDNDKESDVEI

[7] = Selectivity ratio of IC50 for cytotoxicity against human HEK293 cells assessed as inhibition of cell growth to IC50 for cytotoxicity against human MCF7 cells assessed as inhibition of cell growth; format: toxicity, cell-based; details: HEK293 cells versus MCF7 cells, read-out: Ratio IC50
[8] = Selectivity ratio of IC50 for cytotoxicity against human HCEC cells assessed as inhibition of cell growth to IC50 for cytotoxicity against human MCF7 cells assessed as inhibition of cell growth; format: toxicity, cell-based; details: HCEC cells versus MCF7 cells, read-out: Ratio IC50
4T1 [9] = test: Induction of apoptosis in mouse 4T1 cells at 550 nM incubated for 72 hrs by annexin/PI staining based flow cytometry analysis (reference value: 1.35%); format: functional
4T1 [10] = test: Induction of apoptosis in mouse 4T1 cells at 2.75 uM incubated for 72 hrs by annexin/PI staining based flow cytometry analysis (reference value: 1.35%); format: functional
4T1 [11] = test: Induction of apoptosis in mouse 4T1 cells at 7.72 uM incubated for 72 hrs by annexin/PI staining based flow cytometry analysis (reference value: 1.35%); format: functional
4T1 [12] = test: Induction of apoptosis in mouse 4T1 cells at 38.6 uM incubated for 72 hrs by annexin/PI staining based flow cytometry analysis (reference value: 1.35%); format: functional
4T1 [13] = test: Cell cycle arrest in mouse 4T1 cells assessed as accumulation of cells at G2/M phase at 110 nM incubated for 72 hrs by flow cytometry; format: functional
4T1 [14] = test: Cell cycle arrest in mouse 4T1 cells assessed as accumulation of cells at G2/M phase at 550 nM incubated for 72 hrs by flow cytometry; format: functional
4T1 [15] = test: Induction of apoptosis in mouse 4T1 cells assessed as cell shrinkage incubated for 72 hrs by acridine orange staining based analysis; format: functional
MDA-MB-231 [16] = test: Cytotoxicity against wild type human MDA-MB-231 cells assessed as reduction in cell viability incubated for 72 hrs in presence of oxaliplatin by MTT assay; format: functional, cell-based; details: MDA-MB-231, 72 h
[17] = Metabolic stability in rat liver microsome assessed as half life preincubated for 5 mins followed by NADPH addition and measured after 60 mins by HPLC analysis; format: ADME; details: liver microsomes, time 65 min
4T1 [18] = test: Antitumor activity against mouse 4T1 cells implanted in BALB/c mouse assessed as reduction in tumor weight at 15 mg/kg, ip administered 5 times a week for 21 days; format: functional; details: time 21 day
4T1 [19] = test: Antitumor activity against mouse 4T1 cells implanted in BALB/c mouse assessed as tumor growth inhibition at 5 mg/kg, ip measured on day 14; format: functional; details: 4T1, 336 h, time 14 day, read-out: TGI
4T1 [20] = test: Antitumor activity against mouse 4T1 cells implanted in BALB/c mouse assessed as tumor growth inhibition at 15 mg/kg, ip measured on day 21; format: functional; details: 4T1, 504 h, time 21 day, read-out: TGI
Mus musculus [21] = test: Induction of ROS generation in mouse implanted with mouse 4T1 cells at 15 mg/kg, ip administered for 21 days by DCFH-DA staining based microscopic analysis; format: functional, organism-based; details: time 21.0 day
Mus musculus [22] = test: Induction of ROS generation in mouse implanted with mouse 4T1 cells at 5 mg/kg, ip administered for 21 days by DCFH-DA staining based microscopic analysis; format: functional, organism-based; details: time 21.0 day
4T1 [23] = test: Antitumor activity against mouse 4T1 cells implanted in BALB/c mouse assessed as increase in apoptosis in tumor tissue at 5 to 15 mg/kg, ip by TUNEL staining based microscopic analysis; format: functional, organism-based; details: dose 5-15 mg/kg
[24] = Toxicity in BALB/c mouse implanted with mouse 4T1 cells assessed as kidney damage at 5 to 15 mg/kg, ip measured after 21 days by H and E staining based assay; format: organism-based; details: in vivo, 504 h, dose 5-15 mg/kg, time 21 day
[25] = Toxicity in BALB/c mouse implanted with mouse 4T1 cells assessed as spleen damage at 5 to 15 mg/kg, ip measured after 21 days by H and E staining based assay; format: organism-based; details: in vivo, 504 h, dose 5-15 mg/kg, time 21 day
[26] = Toxicity in BALB/c mouse implanted with mouse 4T1 cells assessed as effect on cell shape in heart at 5 to 15 mg/kg, ip measured after 21 days by H and E staining based assay; format: organism-based; details: in vivo, 504 h, dose 5-15 mg/kg, time 21 day
[27] = Toxicity in BALB/c mouse implanted with mouse 4T1 cells assessed as effect on cell shape in liver at 5 to 15 mg/kg, ip measured after 21 days by H and E staining based assay; format: organism-based; details: in vivo, 504 h, dose 5-15 mg/kg, time 21 day
[28] = Toxicity in BALB/c mouse implanted with mouse 4T1 cells assessed as effect on cell size in kidney at 5 to 15 mg/kg, ip measured after 21 days by H and E staining based assay; format: organism-based; details: in vivo, 504 h, dose 5-15 mg/kg, time 21 day
[29] = Toxicity in BALB/c mouse implanted with mouse 4T1 cells assessed as effect on cell size in spleen at 5 to 15 mg/kg, ip measured after 21 days by H and E staining based assay; format: organism-based; details: in vivo, 504 h, dose 5-15 mg/kg, time 21 day
4T1 [30] = test: In-vivo inhibition of HDAC3 in ip dosed BALB/c mouse implanted with mouse 4T1 cells assessed as hyperacetylation of H3K9 level by Western blot analysis; format: functional, organism-based; details: dose 5-15 mg/kg
4T1 [31] = test: In-vivo inhibition of HDAC3 in BALB/c mouse implanted with mouse 4T1 cells assessed as increase in acetylation of SMC3 level at 5 to 15 mg/kg, ip by Western blot analysis; format: functional, organism-based; details: dose 5-15 mg/kg
4T1 [32] = test: Antitumor activity against mouse 4T1 cells implanted in BALB/c mouse assessed as upregulation of caspase-3 level in tumor at 5 to 15 mg/kg, ip by Western blot analysis; format: functional, organism-based; details: dose 5-15 mg/kg
4T1 [33] = test: Antitumor activity against mouse 4T1 cells implanted in BALB/c mouse assessed as reduction in CD44 protein level in tumor at 5 to 15 mg/kg, ip by Western blot analysis; format: functional, organism-based; details: dose 5-15 mg/kg

CCCNNC(=O)c1cnc(NCc2ccc(OC)cc2)cn1
inhibition (Histone deacetylase 1): < 17%
IC50 (MDA-MB-231 [1]): 740 nM
IC50 (MDA-MB-453): 1720 nM
IC50 at 72 h [2]: 239000 nM
Tmax [3]: 2 h
Cmax [4]: 9580 ng/mL
MRT inf [5]: 5.73 h
AUMC [6]: 114.5 ug/ml.hr^2
IC50 (Histone deacetylase 3): 14 nM
selectivity ratio [7]: 286
selectivity ratio [8]: 286
Activity (4T1 [9]): 63.4%
Activity (4T1 [10]): 94.6%
Activity (4T1 [11]): 46.9%
Activity (4T1 [12]): 82.7%
Activity (4T1 [13]): 38.8%
Activity (4T1 [14]): 52.6%
Activity (4T1 [15]): Active
IC50 (MDA-MB-231 [16]): 403 nM
half-life [17]: 0.639 h
Activity (4T1 [18]): 1.78 g
inhibition in vivo at 5 mg/kg (4T1 [19]): 91.2%
inhibition in vivo at 15 mg/kg (4T1 [20]): 97.9%
Activity (Mus musculus [21]): Active
Activity (Mus musculus [22]): Active
Activity (4T1 [23]): Active
Activity [24]: Non-Toxic
Activity [25]: Non-Toxic
Activity [26]: Non-Toxic
Activity [27]: Non-Toxic
Activity [28]: Non-Toxic
Activity [29]: Non-Toxic
inhibition (4T1 [30]): Dose-Dependent Effect
inhibition (4T1 [31]): Active
Activity (4T1 [32]): Active
Activity (4T1 [33]): Active
